In publication PMC5218480 (PLoS ONE, 2017):

Tested on: MV-4-11 cells
Assay: Gene expression microarray analysis (Affymetrix PrimeView) and GSEA
Format: cell-based, human
Parameters: RFU PODN (11730768_x_at) / Fold change /veh PODN (11730768_x_at) / RFU LINC00158 (11744669_a_at) / Fold change /veh LINC00158 (11744669_a_at) / RFU DUSP10 (11751237_a_at) / Fold change /veh DUSP10 (11751237_a_at) / RFU ID3 (11757404_x_at) / Fold change /veh ID3 (11757404_x_at) / RFU PLEKHG5 (11737974_s_at) / Fold change /veh PLEKHG5 (11737974_s_at) / RFU LRRC4B (11730491_at) / Fold change /veh LRRC4B (11730491_at) / RFU GIMAP4 (11747438_a_at) / Fold change /veh GIMAP4 (11747438_a_at) / RFU KRT8 (11758183_x_at) / Fold change /veh KRT8 (11758183_x_at) / RFU CNN1 (11734310_a_at) / Fold change /veh CNN1 (11734310_a_at) / RFU VPS37D (11726825_at) / Fold change /veh VPS37D (11726825_at) / RFU C10orf10 (11716522_x_at) / Fold change /veh C10orf10 (11716522_x_at) / RFU KIR2DL2 /// KIR2DL4 /// KIR2DL5A /// KIR2DL5B /// KIR2DS1 /// KIR2DS2 /// KIR2DS3 /// KIR2DS4 /// KIR3DL3 /// KIR3DL3 /// KIR3DS1 (11738374_at) / Fold change /veh KIR2DL2 /// KIR2DL4 /// KIR2DL5A /// KIR2DL5B /// KIR2DS1 /// KIR2DS2 /// KIR2DS3 /// KIR2DS4 /// KIR3DL3 /// KIR3DL3 /// KIR3DS1 (11738374_at) / RFU C1QL1 (11718748_at) / Fold change /veh C1QL1 (11718748_at) / RFU TMPRSS4 (11747572_a_at) / Fold change /veh TMPRSS4 (11747572_a_at) / RFU HAMP (11756126_x_at) / Fold change /veh HAMP (11756126_x_at) / RFU RNFT2 (11725882_a_at) / Fold change /veh RNFT2 (11725882_a_at) / RFU NR4A2 (11747474_a_at) / Fold change /veh NR4A2 (11747474_a_at) / RFU ABCC12 (11746883_a_at) / Fold change /veh ABCC12 (11746883_a_at) / RFU TMEM136 (11760407_x_at) / Fold change /veh TMEM136 (11760407_x_at) / RFU CLDN22 /// WWC2 (11732394_at) / Fold change /veh CLDN22 /// WWC2 (11732394_at) / RFU HLA-DPB1 (11760878_x_at) / Fold change /veh HLA-DPB1 (11760878_x_at) / RFU SPINT1 (11716480_a_at) / Fold change /veh SPINT1 (11716480_a_at) / RFU GAP43 (11754022_s_at) / Fold change /veh GAP43 (11754022_s_at) / RFU A4GNT (11735810_at) / Fold change /veh A4GNT (11735810_at) / RFU PRB3 (11715151_x_at) / Fold change /veh PRB3 (11715151_x_at) / RFU TUBB4B (11761932_at) / Fold change /veh TUBB4B (11761932_at) / RFU CAPN14 (11732068_a_at) / Fold change /veh CAPN14 (11732068_a_at) / RFU TMCC2 (11721928_a_at) / Fold change /veh TMCC2 (11721928_a_at) / RFU IRGQ (11745062_a_at) / Fold change /veh IRGQ (11745062_a_at) / RFU FAM174B (11720279_a_at) / Fold change /veh FAM174B (11720279_a_at) / RFU TMPRSS4 (11748680_a_at) / Fold change /veh TMPRSS4 (11748680_a_at) / RFU FAM212B (11763350_a_at) / Fold change /veh FAM212B (11763350_a_at) / RFU PLEKHG5 (11743358_a_at) / Fold change /veh PLEKHG5 (11743358_a_at) / RFU ZSCAN30 (11745921_a_at) / Fold change /veh ZSCAN30 (11745921_a_at) / RFU CMKLR1 (11741424_a_at) / Fold change /veh CMKLR1 (11741424_a_at) / RFU LOC101060620 /// MAPK8IP1 (11723275_at) / Fold change /veh LOC101060620 /// MAPK8IP1 (11723275_at) / RFU SPTSSB (11747773_x_at) / Fold change /veh SPTSSB (11747773_x_at) / RFU PRSS12 (11739890_at) / Fold change /veh PRSS12 (11739890_at) / RFU BIN1 (11741810_x_at) / Fold change /veh BIN1 (11741810_x_at) / RFU WNT11 (11732464_a_at) / Fold change /veh WNT11 (11732464_a_at) / RFU C10orf10 (11716521_a_at) / Fold change /veh C10orf10 (11716521_a_at) / RFU C5orf56 (11738089_at) / Fold change /veh C5orf56 (11738089_at) / RFU CYB561 (11721691_x_at) / Fold change /veh CYB561 (11721691_x_at) / RFU ANKRD19P (11752326_a_at) / Fold change /veh ANKRD19P (11752326_a_at) / RFU OR2T12 /// OR2T33 /// OR2T8 (11738714_s_at) / Fold change /veh OR2T12 /// OR2T33 /// OR2T8 (11738714_s_at) / RFU VCAN (11748164_a_at) / Fold change /veh VCAN (11748164_a_at) / RFU JSRP1 (11732532_at) / Fold change /veh JSRP1 (11732532_at) / RFU KRTAP10-11 (11738290_x_at) / Fold change /veh KRTAP10-11 (11738290_x_at) / RFU MYO3A (11730013_a_at) / Fold change /veh MYO3A (11730013_a_at) / RFU EBF3 (11725865_a_at) / Fold change /veh EBF3 (11725865_a_at) / RFU CAMK2N1 (11719241_x_at) / Fold change /veh CAMK2N1 (11719241_x_at) / RFU C5orf56 (11738088_a_at) / Fold change /veh C5orf56 (11738088_a_at) / RFU OLFML3 (11715873_a_at) / Fold change /veh OLFML3 (11715873_a_at) / RFU LOC100653217 /// NTM (11731650_a_at) / Fold change /veh LOC100653217 /// NTM (11731650_a_at) / RFU MAPK11 (11762145_a_at) / Fold change /veh MAPK11 (11762145_a_at) / RFU FIZ1 (11724087_x_at) / Fold change /veh FIZ1 (11724087_x_at) / RFU OASL (11726364_x_at) / Fold change /veh OASL (11726364_x_at) / RFU SOX15 (11748057_x_at) / Fold change /veh SOX15 (11748057_x_at) / RFU CD79A (11719716_a_at) / Fold change /veh CD79A (11719716_a_at) / RFU HIST1H1D (11736915_at) / Fold change /veh HIST1H1D (11736915_at) / RFU CASKIN2 (11723855_a_at) / Fold change /veh CASKIN2 (11723855_a_at) / RFU LOC730098 (11760151_x_at) / Fold change /veh LOC730098 (11760151_x_at) / RFU OR4N2 (11742367_at) / Fold change /veh OR4N2 (11742367_at) / RFU PRRT2 (11749266_a_at) / Fold change /veh PRRT2 (11749266_a_at) / RFU SNX32 (11753110_a_at) / Fold change /veh SNX32 (11753110_a_at) / RFU CDHR5 (11726645_a_at) / Fold change /veh CDHR5 (11726645_a_at) / RFU RCAN1 (11760418_a_at) / Fold change /veh RCAN1 (11760418_a_at) / RFU FAM167A (11723789_a_at) / Fold change /veh FAM167A (11723789_a_at) / RFU FAM26E (11764081_at) / Fold change /veh FAM26E (11764081_at) / RFU ISYNA1 (11749810_s_at) / Fold change /veh ISYNA1 (11749810_s_at) / RFU ACY1 (11761880_at) / Fold change /veh ACY1 (11761880_at) / RFU 11764098_at / Fold change /veh 11764098_at / RFU SAMD14 (11745864_x_at) / Fold change /veh SAMD14 (11745864_x_at) / RFU NPB (11741838_a_at) / Fold change /veh NPB (11741838_a_at) / RFU TMPRSS6 (11731388_a_at) / Fold change /veh TMPRSS6 (11731388_a_at) / RFU KRTAP10-2 (11738614_at) / Fold change /veh KRTAP10-2 (11738614_at) / RFU ARHGAP8 /// PRR5-ARHGAP8 (11727945_x_at) / Fold change /veh ARHGAP8 /// PRR5-ARHGAP8 (11727945_x_at) / RFU KRTAP5-7 /// NADSYN1 (11734609_at) / Fold change /veh KRTAP5-7 /// NADSYN1 (11734609_at) / RFU RASL12 (11751679_a_at) / Fold change /veh RASL12 (11751679_a_at) / RFU CDKN2B (11736163_a_at) / Fold change /veh CDKN2B (11736163_a_at) / RFU PRF1 (11729649_at) / Fold change /veh PRF1 (11729649_at) / RFU, ZNF638 /// ZNF638-IT1 / Fold change vs veh, ZNF638 /// ZNF638-IT1 / RFU, PANK3 / Fold change vs veh, PANK3 / RFU, SH3YL1 / Fold change vs veh, SH3YL1 / RFU, ZEB2 / Fold change vs veh, ZEB2 / RFU, NRIP1 / Fold change vs veh, NRIP1 / RFU, PTTG1IP / Fold change vs veh, PTTG1IP / RFU, CAPN2 / Fold change vs veh, CAPN2 / RFU, MED14 / Fold change vs veh, MED14 / RFU, SNORA58 / Fold change vs veh, SNORA58 / RFU, C1orf63 / Fold change vs veh, C1orf63 / RFU, LRRFIP1 / Fold change vs veh, LRRFIP1 / RFU, NDUFAF7 / Fold change vs veh, NDUFAF7 / RFU, SLC12A2 / Fold change vs veh, SLC12A2 / RFU, IBTK / Fold change vs veh, IBTK / RFU, ESF1 / Fold change vs veh, ESF1 / Fold change vs veh, TMEM50B / RFU, TAOK1 / Fold change vs veh, TAOK1 / RFU, ACBD3 / Fold change vs veh, ACBD3 / RFU, TMA16 / Fold change vs veh, TMA16 / RFU, RWDD3 / Fold change vs veh, RWDD3 / RFU, BCAT1 / Fold change vs veh, BCAT1 / RFU, EDEM3 / Fold change vs veh, EDEM3 / RFU, TMEM33 / Fold change vs veh, TMEM33 / RFU, WDR75 / Fold change vs veh, WDR75 / RFU, AHCTF1 / Fold change vs veh, AHCTF1 / RFU, TFRC / Fold change vs veh, TFRC / RFU, ZDHHC17 / Fold change vs veh, ZDHHC17 / RFU, NOM1 / Fold change vs veh, NOM1 / RFU, ARL8B / Fold change vs veh, ARL8B / RFU, ZBTB11 / Fold change vs veh, ZBTB11 / RFU, TAMM41 / Fold change vs veh, TAMM41 / RFU, KIAA1704 /// LOC100996395 / Fold change vs veh, KIAA1704 /// LOC100996395 / RFU, ING1 / Fold change vs veh, ING1 / RFU, TRMT61B / Fold change vs veh, TRMT61B / RFU, FUBP3 / Fold change vs veh, FUBP3 / RFU, TP53 / Fold change vs veh, TP53 / RFU, TNKS2 / Fold change vs veh, TNKS2 / RFU, ZFP14 / Fold change vs veh, ZFP14 / RFU, ACTR2 / Fold change vs veh, ACTR2 / RFU, PPP3R1 / Fold change vs veh, PPP3R1 / RFU, PIK3R1 / Fold change vs veh, PIK3R1 / RFU, HNRNPA1 / Fold change vs veh, HNRNPA1 / RFU, RNF170 / Fold change vs veh, RNF170 / RFU, ZNF28 / Fold change vs veh, ZNF28 / RFU, RNGTT / Fold change vs veh, RNGTT / RFU, OGT / Fold change vs veh, OGT / RFU, BRD1 / Fold change vs veh, BRD1 / RFU, MARS / Fold change vs veh, MARS / RFU, ZNF655 / Fold change vs veh, ZNF655 / RFU, FAHD1 / Fold change vs veh, FAHD1 / RFU, BDP1 / Fold change vs veh, BDP1 / RFU, LRRCC1 / Fold change vs veh, LRRCC1 / RFU, ARID1A / Fold change vs veh, ARID1A / RFU, ZNF146 / Fold change vs veh, ZNF146 / RFU, ZNF330 / Fold change vs veh, ZNF330 / RFU, GPN3 / Fold change vs veh, GPN3 / RFU, C9orf123 / Fold change vs veh, C9orf123 / RFU, N4BP2L2 / Fold change vs veh, N4BP2L2 / RFU, ARFIP1 / Fold change vs veh, ARFIP1 / RFU, FAM179B / Fold change vs veh, FAM179B / RFU, BCL10 / Fold change vs veh, BCL10 / RFU, UHRF1BP1L / Fold change vs veh, UHRF1BP1L / RFU, BET1 / Fold change vs veh, BET1 / RFU, CNOT2 / Fold change vs veh, CNOT2 / RFU, ZNF268 / Fold change vs veh, ZNF268 / Fold change vs veh, ZNF507 / RFU, DGCR2 / Fold change vs veh, DGCR2 / RFU, WDSUB1 / Fold change vs veh, WDSUB1 / Fold change vs veh, HSP90B1 /// MIR3652 / RFU, ADSS / Fold change vs veh, ADSS / RFU, GK / Fold change vs veh, GK / RFU, ZNF148 / Fold change vs veh, ZNF148 / RFU, TAF9 / Fold change vs veh, TAF9 / RFU, SLC1A5 / Fold change vs veh, SLC1A5 / RFU, SLMO2 / Fold change vs veh, SLMO2 / RFU, ABCC4 / Fold change vs veh, ABCC4 / RFU, LOC101060439 /// RAP1B / Fold change vs veh, LOC101060439 /// RAP1B / RFU, RFX7 / Fold change vs veh, RFX7 / RFU, GTPBP10 / Fold change vs veh, GTPBP10 / RFU, CNEP1R1 / Fold change vs veh, CNEP1R1 / RFU, BIVM-ERCC5 /// ERCC5 / Fold change vs veh, BIVM-ERCC5 /// ERCC5 / RFU, ILF3 / Fold change vs veh, ILF3 / RFU 11762660_at / Fold change /veh 11762660_at / RFU VCAN (11757783_s_at) / Fold change /veh VCAN (11757783_s_at) / RFU DDX43 (11728927_at) / Fold change /veh DDX43 (11728927_at) / RFU KRT8 (11758188_x_at) / Fold change /veh KRT8 (11758188_x_at) / RFU NKD1 (11759106_at) / Fold change /veh NKD1 (11759106_at) / RFU SRD5A1 (11742802_a_at) / Fold change /veh SRD5A1 (11742802_a_at) / RFU TPSAB1 /// TPSB2 (11721975_s_at) / Fold change /veh TPSAB1 /// TPSB2 (11721975_s_at) / RFU GSTM3 (11746129_a_at) / Fold change /veh GSTM3 (11746129_a_at) / RFU IL23R (11737362_x_at) / Fold change /veh IL23R (11737362_x_at) / RFU TMEM51 (11727254_a_at) / Fold change /veh TMEM51 (11727254_a_at) / RFU PIWIL2 (11732686_x_at) / Fold change /veh PIWIL2 (11732686_x_at) / RFU ORM1 (11744905_x_at) / Fold change /veh ORM1 (11744905_x_at) / RFU CCDC152 (11743942_at) / Fold change /veh CCDC152 (11743942_at) / RFU ECM1 (11717891_a_at) / Fold change /veh ECM1 (11717891_a_at) / RFU IL23R (11748794_a_at) / Fold change /veh IL23R (11748794_a_at) / RFU TNFAIP8L3 (11732012_x_at) / Fold change /veh TNFAIP8L3 (11732012_x_at) / RFU MBOAT4 (11741988_at) / Fold change /veh MBOAT4 (11741988_at) / RFU 11764193_at / Fold change /veh 11764193_at / RFU TMEM53 (11763286_at) / Fold change /veh TMEM53 (11763286_at) / RFU MAGEB2 (11727129_at) / Fold change /veh MAGEB2 (11727129_at) / RFU TMEM200A (11744735_a_at) / Fold change /veh TMEM200A (11744735_a_at) / RFU CCDC152 (11751479_a_at) / Fold change /veh CCDC152 (11751479_a_at) / RFU FAM211A (11726209_a_at) / Fold change /veh FAM211A (11726209_a_at) / RFU RGS16 (11746705_a_at) / Fold change /veh RGS16 (11746705_a_at) / RFU VCAN (11755009_s_at) / Fold change /veh VCAN (11755009_s_at) / RFU RHOB (11743442_s_at) / Fold change /veh RHOB (11743442_s_at) / RFU RGS16 (11720943_a_at) / Fold change /veh RGS16 (11720943_a_at) / RFU RGS16 (11720944_at) / Fold change /veh RGS16 (11720944_at) / RFU, VPS4B / Fold change vs veh, VPS4B / RFU, CREB1 / Fold change vs veh, CREB1 / RFU, DNAJC13 / Fold change vs veh, DNAJC13 / RFU, GNAQ / Fold change vs veh, GNAQ / RFU, CDK5R1 / Fold change vs veh, CDK5R1 / RFU, ZRANB3 / Fold change vs veh, ZRANB3 / RFU, CUL4A / Fold change vs veh, CUL4A / RFU, CCNY / Fold change vs veh, CCNY / RFU, UFL1 / Fold change vs veh, UFL1 / RFU, COG3 / Fold change vs veh, COG3 / RFU, DIAPH2 / Fold change vs veh, DIAPH2 / RFU, SKA2 / Fold change vs veh, SKA2 / RFU, AFF3 / Fold change vs veh, AFF3 / RFU, LMF1 / Fold change vs veh, LMF1 / RFU, IPO11 / Fold change vs veh, IPO11 / RFU, DFFB / Fold change vs veh, DFFB / RFU, FOXP1 / Fold change vs veh, FOXP1 / RFU, CARD8 / Fold change vs veh, CARD8 / RFU, STRN3 / Fold change vs veh, STRN3 / RFU, ADK / Fold change vs veh, ADK / RFU, RASSF2 / Fold change vs veh, RASSF2 / RFU, WIPF1 / Fold change vs veh, WIPF1 / RFU, LARP1B / Fold change vs veh, LARP1B / RFU, RASA1 / Fold change vs veh, RASA1 / RFU, RB1 / Fold change vs veh, RB1 / RFU, PPFIA1 / Fold change vs veh, PPFIA1 / RFU, MAT2A / Fold change vs veh, MAT2A / RFU, CCT5 / Fold change vs veh, CCT5 / RFU, WDR92 / Fold change vs veh, WDR92 / RFU, CUX1 / Fold change vs veh, CUX1 / RFU, TTC7A / Fold change vs veh, TTC7A / RFU, TMEM135 / Fold change vs veh, TMEM135 / RFU, DEPTOR / Fold change vs veh, DEPTOR / RFU, CPM / Fold change vs veh, CPM / RFU, DNAJB6 / Fold change vs veh, DNAJB6 / RFU, CACNA2D3 / Fold change vs veh, CACNA2D3 / RFU, DTX4 / Fold change vs veh, DTX4 / RFU, TFCP2 / Fold change vs veh, TFCP2 / RFU, GMCL1 /// GMCL1P1 / Fold change vs veh, GMCL1 /// GMCL1P1 / RFU, AEBP2 / Fold change vs veh, AEBP2 / RFU, SNHG1 /// SNORD22 /// SNORD25 /// SNORD26 /// SNORD27 /// SNORD28 /// SNORD29 /// SNORD31 / Fold change vs veh, SNHG1 /// SNORD22 /// SNORD25 /// SNORD26 /// SNORD27 /// SNORD28 /// SNORD29 /// SNORD31 / Fold change (Aza/veh), C12orf56 (ProbeSet 11735607_a_at) / Fold change (ACY-1035/veh), C12orf56 (ProbeSet 11735607_a_at) / Fold change (Aza/veh), FGFR1OP (ProbeSet 11751329_s_at) / Fold change (ACY-1035/veh), FGFR1OP (ProbeSet 11751329_s_at) / Fold change (Aza/veh), VPS36 (ProbeSet 11739960_a_at) / Fold change (ACY-1035/veh), VPS36 (ProbeSet 11739960_a_at) / RFU SYPL1 (11715823_x_at) / Fold change /veh SYPL1 (11715823_x_at) / RFU IGFBP7 (11715501_s_at) / Fold change /veh IGFBP7 (11715501_s_at) / RFU REEP3 (11722064_at) / Fold change /veh REEP3 (11722064_at) / RFU IGLL1 (11728026_x_at) / Fold change /veh IGLL1 (11728026_x_at): dose or concentration left out as unconfirmed
Settings: ProbeSet 11719632_a_at; LIST B

Compound: Nc1ccc(-c2cccs2)cc1NC(=O)c1ccc2c(c1)cc(C1CC1)n2CCN1CCOCC1 [ACY-1035]
- RFU, ABCC4: 40.19 RFU
